Experimental data: patent publication US20070179060A1, “6-(Poly-substituted aryl)-4-aminopicolinates and their use as herbicides” (priority 2006, published 2007)

What was measured:
[1] = system: lambsquarter (Chenopodium album); assay: Preemergence herbicidal activity; assay type: in vivo; conditions: Chenopodium album, pre-emergence, 480 h; pre-emergent, 140 g ai/ha, after 20-22 days; read-out: % Control CHEAL
Method in brief: (§1)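 Seeds sown in 70:30 loam (pH about 8.1, about 1.5% organic matter) and sand mix, then sprayed preemergence at 187 L/ha with a track sprayer; controls received solvent blank. Pots kept in greenhouse, about 15 h photoperiod, about 23-29° C. day and 22-28° C. night, top-irrigated.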

[2] = system: redroot pigweed (Amaranthus retroflexus); assay: Preemergence herbicidal activity; assay type: in vivo; conditions: Amaranthus retroflexus, pre-emergence, 480 h; pre-emergent, 140 g ai/ha, after 20-22 days; read-out: % Control AMARE
Method in brief: as §1

[3] = system: velvetleaf (Abutilon theophrasti); assay: Preemergence herbicidal activity; assay type: in vivo; conditions: Abutilon theophrasti, pre-emergence, 480 h; pre-emergent, 140 g ai/ha, after 20-22 days; read-out: % Control ABUTH
Method in brief: as §1

[4] = system: lambsquarter (Chenopodium album); assay: Postemergence herbicidal activity; assay type: in vivo; conditions: Chenopodium album, post-emergence, 336 h, post-emergent, 140 g ai/ha, after 14 days; read-out: % Control CHEAL
Method in brief: (§2)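 Plants grown 7-21 days in greenhouse (about 15 h photoperiod, 23-29° C day, 22-28° C night) to first or second true leaf stage. Compounds in acetone/water/isopropanol/DMSO carrier with crop oil concentrate and Triton X-155 sprayed overhead at 187 L/ha; controls received solvent blank. Plants sub-irrigated afterwards; dose responses analysed by probit analysis.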

[5] = system: redroot pigweed (Amaranthus retroflexus); assay: Postemergence herbicidal activity; assay type: in vivo; conditions: Amaranthus retroflexus, post-emergence, 336 h, post-emergent, 140 g ai/ha, after 14 days; read-out: % Control AMARE
Method in brief: as §2

[6] = system: velvetleaf (Abutilon theophrasti); assay: Postemergence herbicidal activity; assay type: in vivo; conditions: Abutilon theophrasti, post-emergence, 336 h, post-emergent, 140 g ai/ha, after 14 days; read-out: % Control ABUTH
Method in brief: as §2

[7] = system: Scirpus juncoides; assay: Herbicidal activity in transplanted paddy rice; assay type: in vivo; conditions: paddy water application, after 3 weeks; for pest or weed control at 70 g/ha: Schoenoplectiella juncoides, 504 h, 70 g ai/ha, read-out: % Control SCPJU
Description: (§3) Weed seeds or nutlets of the desired test plant species were planted in puddled soil (mud) prepared by mixing a non-sterilized mineral soil (28 percent silt, 18 percent clay, and 54 percent sand, with a pH of about 7.3 to 7.8 and an organic matter content of about 1.0 percent) and water at a ratio of 100 kg of soil to 19 L of water. The prepared mud was dispensed in 250 mL aliquots into 480 mL non-perforated plastic pots with a surface area of 91.6 square centimeters leaving a headspace of 3 centimeters in each pot. […] Seedlings at the second or third leaf stage of growth were transplanted into 650 mL of mud contained in 960 mL non-perforated plastic pots with a surface area of 91.6 square centimeters 4 days prior to herbicide application. The paddy was created by filling the 3 centimeter headspace of the pots with water. When required to ensure good germination and healthy plants, a fungicide treatment and/or other chemical or physical treatment was applied. The plants were grown for 4-14 days in a greenhouse with an approximate 14 hour photoperiod which was maintained at about 29° C. during the day and 26° C. during the night. Nutrients were added as Osmocote (17:6:10, N:P:K+minor nutrients) at 2 g per pot. Water was added on a regular basis to maintain the paddy flood, and supplemental lighting was provided with overhead metal halide 1000-Watt lamps as necessary. The plants were employed for testing when they reached the second or third true leaf stage. A weighed amount, determined by the highest rate to be tested, of each test compound was placed in a 120 mL glass vial and was dissolved in 20 mL of acetone to obtain concentrated stock solutions. […] Application rates of ½×, ¼×, ⅛× and 1/16× of the high rate were obtained by injecting an appropriate amount of the stock solution into the aqueous layer of the paddy. Control plants were treated in the same manner with the solvent blank. The treated plants and control plants were placed in a greenhouse as described above and water was added as needed to maintain a paddy flood.

[8] = system: Echinochloa crus-galli; assay: Herbicidal activity in transplanted paddy rice; assay type: in vivo; conditions: paddy water application, after 3 weeks; for pest or weed control at 70 g/ha: Echinochloa crus-galli, 504 h, 70 g ai/ha, read-out: % Control ECHCG
Description: as §3

[9] = system: Monochoria vaginalis; assay: Herbicidal activity in transplanted paddy rice; assay type: in vivo; conditions: paddy water application, after 3 weeks; for pest or weed control at 70 g/ha: Pontederia vaginalis, 504 h, 70 g ai/ha, read-out: % Control MOOVA
Description: as §3

[10] = system: Cyperus difformis; assay: Herbicidal activity in transplanted paddy rice; assay type: in vivo; conditions: paddy water application, after 3 weeks; for pest or weed control at 70 g/ha: Cyperus difformis, 504 h, 70 g ai/ha, read-out: % Control CYPDI
Description: as §3

[11] = system: rice (Orysa sativa var. Japonica); assay: Herbicidal activity in transplanted paddy rice; assay type: in vivo; conditions: transplant rice (crop), paddy water application, after 3 weeks; for pest or weed control at 70 g/ha: Oryza sativa, 504 h, 70 g ai/ha
Description: as §3

Row | SMILES | pest or weed control at 140 g/ha [1] [%] | pest or weed control at 140 g/ha [2] [%] | pest or weed control at 140 g/ha [3] [%] | melting point | pest or weed control at 140 g/ha [4] [%] | pest or weed control at 140 g/ha [5] [%] | pest or weed control at 140 g/ha [6] [%] | pest or weed control at 70 g/ha [7] [%] | pest or weed control at 70 g/ha [8] [%] | pest or weed control at 70 g/ha [9] [%] | pest or weed control at 70 g/ha [10] [%] | pest or weed control at 70 g/ha [11] [%] | % Control SCPJU ([7]; 35 g ai/ha) [%] | % Control ECHCG ([8]; 35 g ai/ha) [%] | % Control MOOVA ([9]; 35 g ai/ha) [%] | % Control CYPDI ([10]; 35 g ai/ha) [%] | % Control ORYSA ([11]; 35 g ai/ha) [%]
1 | COC(=O)c1nc(-c2ccc(Br)c(OC)c2Cl)cc(N)c1Cl [Compound 52, 4-Amino-6-(4-bromo-2-chloro-3-methoxyphenyl)-3-chloropyridine-2-carboxylic acid, methyl ester] | 90 | 100 | 100 | 154 to 155 °C | 95 | 100 | 100 | 95 | 60 | 99 | 100 | 0 | – | – | – | – | –
2 | CCOC(=O)c1nc(-c2ccc(Cl)c(OC)c2F)cc(N)c1Cl [Compound 86, 4-amino-3-chloro-6-(4-chloro-2-fluoro-3-methoxyphenyl)-pyridine-2-carboxylic acid, ethyl ester] | – | – | – | – | 100 | 100 | 100 | 95 | 25 | 100 | 100 | 10 | – | – | – | – | –
3 | CCCCOC(=O)c1nc(-c2ccc(Cl)c(OC)c2Cl)cc(N)c1Cl [Compound 89, 4-Amino-3-chloro-6-(2,4-dichloro-3-methoxyphenyl)pyridine-2-carboxylic acid, butyl ester] | – | – | – | – | – | – | – | 90 | 85 | 100 | 100 | 0 | – | – | – | – | –
4 | CC(F)c1c(Cl)ccc(-c2cc(N)cc(C(=O)O)n2)c1Cl (stereo not drawn) [Compound 125, 4-Amino-6-[2,4 dichloro-3-(1-fluoroethyl)phenyl]pyridine-2-carboxylic acid] | 100 | 100 | 100 | 169 to 170 °C (dec.) | – | – | – | 100 | 100 | 100 | 100 | 5 | – | – | – | – | –
5 | CCN(CC)CC.COc1c(Cl)ccc(-c2cc(N)c(Cl)c(C(=O)O)n2)c1Cl [Compound 136, 4-Amino-3-chloro-6-(2,4 dichloro-3-methoxyphenyl)pyridine-2-carboxylic acid, triethyl amine salt] | – | – | – | – | – | – | – | – | – | – | – | – | 80 | 15 | 100 | 100 | 0
